Like-named read-outs stand apart in the source and are kept apart here.
Tests used:
Assay type in all cases: cell-based
Huh-7 = experiment: Cytotoxicity CC50 in Huh-7; details: Huh-7 cells
From the text: (§1) The in vitro antiviral activity against HCV of the compounds of formula I can be tested in a cellular HCV replicon system based on Lohmann et al. (1999) Science 285:110-113, with the further modifications described by Krieger et al. (2001) Journal of Virology 75: 4614-4624 (incorporated herein by reference), which is further exemplified in the examples section. This model, while not a complete infection model for HCV, is widely accepted as the most robust and efficient model of autonomous HCV RNA replication currently available. […] It will be appreciated that it is important to distinguish between compounds that specifically interfere with HCV functions from those that exert cytotoxic or cytostatic effects in the HCV replicon model, and as a consequence cause a decrease in HCV RNA or linked reporter enzyme concentration. Assays are known in the field for the evaluation of cellular cytotoxicity based for example on the activity of mitochondrial enzymes using fluorogenic redox dyes such as resazurin. Furthermore, cellular counter screens exist for the evaluation of non-selective inhibition of linked reporter gene activity, such as firefly luciferase. Appropriate cell types can be equipped by stable transfection with a luciferase reporter gene whose expression is dependent on a constitutively active gene promoter, and such cells can be used as a counter-screen to eliminate non-selective inhibitors.

[1] = tested on: HCV type 1b replicon in Huh-7 luc/neo (Huh-Luc) cells; experiment: HCV replicon assay (Huh-Luc luciferase); details: three days incubation, luciferase activity, average where tested more than once, read-out: EC50 1b ET
From the text: The compounds of formula I are examined for activity in the inhibition of HCV RNA replication in a cellular assay. […] The cellular assay can be based on a bicistronic expression construct, as described by Lohmann et al. (1999) Science vol. 285 pp. 110-113 with modifications described by Krieger et al. (2001) Journal of Virology 75: 4614-4624, in a multi-target screening strategy. The Bartenschlager replicon assays are available commercially from ReBLikon GmbH in Mainz, Germany.
In essence, the method is as follows.
The assay utilized the stably transfected cell line Huh-7 luc/neo (hereafter referred to as Huh-Luc). This cell line harbors an RNA encoding a bicistronic expression construct comprising the wild type NS3—NS5B regions of HCV type 1b translated from an Internal Ribosome Entry Site (IRES) from encephalomyocarditis virus (EMCV), preceded by a reporter portion (FfL-luciferase), and a selectable marker portion (neo^R, neomycine phosphotransferase). The construct is bordered by 5′ and 3′ NTRs (non-translated regions) from HCV type lb. Continued culture of the replicon cells in the presence of G418 (neo^R) is dependent on the replication of the HCV RNA. The stably transfected replicon cells that express HCV RNA, which replicates autonomously and to high levels, encoding inter alia luciferase, are used for screening the antiviral compounds.
The replicon cells were plated in well plates in the presence of the test and control compounds, which were added in various concentrations. Following an incubation of three days, HCV replication was measured by assaying luciferase activity (using standard luciferase assay substrates and reagents and a Perkin Elmer ViewLux™ ultraHTS microplate imager). Replicon cells in the control cultures have high luciferase expression in the absence of any inhibitor. The inhibitory activity of the compound on luciferase activity was monitored on the Huh-Luc cells, enabling a dose-response curve for each test compound. EC50 values were then calculated, which value represents the amount of the compound required to decrease by 50% the level of detected luciferase activity, or more specifically, the ability of the genetically linked HCV replicon RNA to replicate. Where a compound of formula (I) was tested more than once in the replicon assay, the average of all test results is given in Table 1.

[2] = Cytotoxicity CC50 in Huh-7; details: human; Huh-7 cells
From the text: as §1

Row | Compound | CC50 (Huh-7) | EC50 [1] | CC50 [2] | EC50 ([1]; Hepatitis C virus, Huh-7, 72 h)
1 | CCCC(CCC)COC(=O)C(C)NP(=O)(OCC1(N=[N+]=[N-])OC(n2ccc(=O)[nH]c2=O)C(C)C1O)Oc1ccccc1 (mixture of isomers) [Compound I-3] | 30.7 µM | 8.06 µM |  | 
2 | CC(NP(=O)(OCC1(N=[N+]=[N-])OC(n2ccc(=O)[nH]c2=O)C(C)C1O)Oc1cccc2ccccc12)C(=O)OCc1ccccc1 (mixture of isomers) [Compound I-11] | > 100 µM | 13.8 µM |  | 
3 | CCCC(CCC)COC(=O)C(C)NP(=O)(OCC1(N=[N+]=[N-])OC(n2ccc(=O)[nH]c2=O)C(C)C1O)Oc1ccc(Cl)cc1 (mixture of isomers) [Compound I-15] | > 100 µM | 15.3 µM |  | 
4 | CCOC(=O)C(C)NP(=O)(OCC1(N=[N+]=[N-])OC(n2ccc(=O)[nH]c2=O)C(C)C1O)Oc1ccccc1 (mixture of isomers) [Compound I-16] | > 98.3 µM | 16.4 µM |  | 
5 | COCCOC(=O)C(C)NP(=O)(OCC1(N=[N+]=[N-])OC(n2ccc(=O)[nH]c2=O)C(C)C1O)Oc1ccccc1 (mixture of isomers) [Compound I-23] | > 98.3 µM | 32.1 µM |  | 
6 | CCOC(=O)C(C)NP(=O)(OCC1(N=[N+]=[N-])OC(n2ccc(=O)[nH]c2=O)C(C)C1O)Oc1cc(C)c(Cl)cc1C(C)C (mixture of isomers) [Compound I-24] | 55 µM | 37.7 µM |  | 
7 | CCOC(=O)[C@H](C)NP(=O)(OC[C@@]1(N=[N+]=[N-])O[C@@H](n2ccc(=O)[nH]c2=O)[C@@H](C)[C@@H]1O)Oc1ccccc1 (single isomer, unassigned) [Compound I-8] | > 98.3 µM | 12 µM |  | 
8 | CCOC(=O)[C@H](C)NP(=O)(OC[C@@]1(N=[N+]=[N-])O[C@@H](n2ccc(=O)[nH]c2=O)[C@@H](C)[C@@H]1O)Oc1ccccc1 (single isomer, unassigned) [Compound I-17] | > 98.3 µM | 17.3 µM |  | 
9 | CC(NP(=O)(OC[C@@]1(N=[N+]=[N-])O[C@@H](n2ccc(=O)[nH]c2=O)[C@@H](C)[C@@H]1O)Oc1ccccc1)C(=O)OCc1ccccc1 (stereo partly shown) [Compound I-1] |  |  | > 100 µM | 5.95 µM
10 | CCCCOC(=O)C(C)NP(=O)(OC[C@@]1(N=[N+]=[N-])O[C@@H](n2ccc(=O)[nH]c2=O)[C@@H](C)[C@@H]1O)Oc1ccccc1 (stereo partly shown) [Compound I-4] |  |  | > 98.3 µM | 9.33 µM
11 | CCCCCOC(=O)C(C)NP(=O)(OC[C@@]1(N=[N+]=[N-])O[C@@H](n2ccc(=O)[nH]c2=O)[C@@H](C)[C@@H]1O)Oc1ccccc1 (stereo partly shown) [Compound I-5] |  |  | > 98.3 µM | 9.48 µM
12 | CC(NP(=O)(OC[C@@]1(N=[N+]=[N-])O[C@@H](n2ccc(=O)[nH]c2=O)[C@@H](C)[C@@H]1O)Oc1ccccc1)C(=O)OC1CCCC1 (stereo partly shown) [Compound I-6] |  |  | > 98.3 µM | 10.5 µM
13 | CC(NP(=O)(OC[C@@]1(N=[N+]=[N-])O[C@@H](n2ccc(=O)[nH]c2=O)[C@@H](C)[C@@H]1O)Oc1ccccc1)C(=O)OC1CCCCC1 (stereo partly shown) [Compound I-7] |  |  | > 98.3 µM | 11.2 µM
14 | CCCC(CCC)COC(=O)[C@H](C)NP(=O)(O)OC[C@@]1(N=[N+]=[N-])O[C@@H](n2ccc(=O)[nH]c2=O)[C@@H](C)[C@@H]1O [Compound I-9] |  | 15.8 µM |  | 
15 | CCCOC(=O)C(C)NP(=O)(OC[C@@]1(N=[N+]=[N-])O[C@@H](n2ccc(=O)[nH]c2=O)[C@@H](C)[C@@H]1O)Oc1ccccc1 (stereo partly shown) [Compound I-10] |  |  | > 98.3 µM | 12.9 µM
16 | C[C@@H]1[C@H](n2ccc(=O)[nH]c2=O)O[C@@](COP(=O)(NC(C)(C)C(=O)OCc2ccccc2)Oc2ccccc2)(N=[N+]=[N-])[C@H]1O (stereo partly shown) [Compound I-12] |  |  | > 100 µM | 13.9 µM

Row | Compound | CC50 (Huh-7) | EC50 [1] | CC50 [2] | EC50 ([1]; Hepatitis C virus, Huh-7, 72 h)
17 | CCCCOC(=O)C(C)(C)NP(=O)(OC[C@@]1(N=[N+]=[N-])O[C@@H](n2ccc(=O)[nH]c2=O)[C@@H](C)[C@@H]1O)Oc1ccccc1 (stereo partly shown) [Compound I-13] |  |  | 88.5 µM | 13.1 µM
18 | CC(C)OC(=O)C(C)NP(=O)(OC[C@@]1(N=[N+]=[N-])O[C@@H](n2ccc(=O)[nH]c2=O)[C@@H](C)[C@@H]1O)Oc1ccccc1 (stereo partly shown) [Compound I-14] |  |  | > 100 µM | 14.9 µM
19 | COC(=O)C(C)NP(=O)(OC[C@@]1(N=[N+]=[N-])O[C@@H](n2ccc(=O)[nH]c2=O)[C@@H](C)[C@@H]1O)Oc1ccccc1 (stereo partly shown) [Compound I-18] |  |  | > 98.3 µM | 27 µM
20 | CCCCOC(=O)C(CC)NP(=O)(OC[C@@]1(N=[N+]=[N-])O[C@@H](n2ccc(=O)[nH]c2=O)[C@@H](C)[C@@H]1O)Oc1ccccc1 (stereo partly shown) [Compound I-20] |  |  | > 73.9 µM | 28 µM
21 | CCC(NP(=O)(OC[C@@]1(N=[N+]=[N-])O[C@@H](n2ccc(=O)[nH]c2=O)[C@@H](C)[C@@H]1O)Oc1ccccc1)C(=O)OCc1ccccc1 (stereo partly shown) [Compound I-21] |  |  | 81.8 µM | 29.2 µM
22 | C[C@@H]1[C@H](n2cc(I)c(=O)[nH]c2=O)O[C@@](COP(=O)(N[C@@H](C)C(=O)OCc2ccccc2)Oc2ccccc2)(N=[N+]=[N-])[C@H]1O (stereo partly shown) [Compound I-25] |  |  | > 98.3 µM | 57.3 µM
23 | CCC(NP(=O)(OC[C@@]1(N=[N+]=[N-])O[C@@H](n2ccc(=O)[nH]c2=O)[C@@H](C)[C@@H]1O)Oc1ccccc1)C(=O)OC (stereo partly shown) [Compound I-26] |  |  | > 98.3 µM | 74.7 µM
24 | CCC(NP(=O)(O)OC[C@@]1(N=[N+]=[N-])O[C@@H](n2ccc(=O)[nH]c2=O)[C@@H](C)[C@@H]1O)C(=O)OC(C)C (stereo partly shown) [Compound I-27] |  |  |  | > 98.4 µM
25 | CC(C)OC(=O)C(C)(C)NP(=O)(OC[C@@]1(N=[N+]=[N-])O[C@@H](n2ccc(=O)[nH]c2=O)[C@@H](C)[C@@H]1O)Oc1ccccc1 (stereo partly shown) [Compound I-28] |  |  | > 98.4 µM | > 98.4 µM
26 | CCC(NP(=O)(O)OC[C@@]1(N=[N+]=[N-])O[C@@H](n2ccc(=O)[nH]c2=O)[C@@H](C)[C@@H]1O)C(=O)OC (stereo partly shown) [Compound I-29] |  |  | > 98.4 µM | > 98.4 µM
27 | CCCOC(=O)C(C)NP(=O)(O)OC[C@@]1(N=[N+]=[N-])O[C@@H](n2ccc(=O)[nH]c2=O)[C@@H](C)[C@@H]1O (stereo partly shown) [Compound I-30] |  |  | > 98.4 µM | > 98.4 µM
28 | CC(NP(=O)(OC[C@@]1(N=[N+]=[N-])O[C@@H](n2ccc(=O)[nH]c2=O)[C@@H](C)[C@@H]1O)Oc1ccccc1)C(=O)OC(C)(C)C (stereo partly shown) [Compound I-31] |  |  | > 98.4 µM | > 98.4 µM
29 | CCCCOC(=O)C(C)(C)NP(=O)(O)OC[C@@]1(N=[N+]=[N-])O[C@@H](n2ccc(=O)[nH]c2=O)[C@@H](C)[C@@H]1O [Compound I-32] |  |  |  | > 98.4 µM
30 | CCC(NP(=O)(O)OC[C@@]1(N=[N+]=[N-])O[C@@H](n2ccc(=O)[nH]c2=O)[C@@H](C)[C@@H]1O)C(=O)OCc1ccccc1 (stereo partly shown) [Compound I-33] |  |  |  | > 98.4 µM
31 | CCC(NP(=O)(OC[C@@]1(N=[N+]=[N-])O[C@@H](n2ccc(=O)[nH]c2=O)[C@@H](C)[C@@H]1O)Oc1ccccc1)C(=O)OC(C)C (stereo partly shown) [Compound I-34] |  |  | > 98.4 µM | > 98.4 µM

From patent publication US8552021B2, “Phosphoramidate derivatives of nucleosides” (Janssen Products, L.P., priority 2009, dated 2013)
